Assay results taken from ChEMBL document CHEMBL3608240, “Tetrahydropyrrolo-diazepenones as inhibitors of ERK2 kinase” (Bioorg Med Chem Lett, 2015).

Key:
[1] = Clearance in rat at 1 mg/kg, iv relative to hepatic blood flow; format: ADME, organism-based, Liver; details: in vivo
[2] = Oral bioavailability in rat at 250 mg/kg; format: ADME, organism-based; details: in vivo

**Q.** What does the source list for `O=C1c2cc(-c3ccnc(NC4CCOCC4)n3)cn2CCCN1[C@H](CO)c1ccccc1`?
**A.** clearance [1]: 79 mL/min/kg; bioavailability [2]: < 10%
